Test results from US6083982A, “Natriuretic compounds” (Loma Linda University Medical, priority 1998, dated 2000).
Where “and” joins values, the source holds several entries; their conditions need not be identical. Equal entries are not always repeated. Entries after “also recorded” stand apart in the source; their conditions may differ.

Legend:
conscious rats = test: In vivo bioassay for natriuresis, kaliuresis, diuresis and mean arterial pressure in conscious rats; design: species or system female Sprague-Dawley rats; details: for Natriuretic Response (R): Rn = SR/FR, >0.67 active
Experimental: Female Sprague-Dawley (Harlan) rats (200-250 g) were cannulated in the femoral artery and vein for monitoring of mean arterial pressure (MAP) and infusion of saline and samples, respectively. The bladder was catheterized for collection of urine in ten-minute periods. Furosemide (0.4 mg/kg bwt; 1 mg/mL in 0.17% saline) was infused as a positive control at the beginning of the sixth ten-minute period. The sample was infused at the beginning of the seventeenth ten-minute period. Urine was collected for another 150 minutes. The volume of the urine was determined gravimetrically and the Na^+ and K^+ concentrations determined with a Beckman E2A electrolyte analyzer.
The natriuretic response of a sample was normalized to the dose of furosemide infused. The net sodium excretion for the infusion of furosemide or sample was calculated as follows. The median sodium excretion value (μmoles Na^+ /10 minute period) for the five periods before infusion of furosemide or sample was used to establish a baseline value for the calculation of ΔUNaV(=μmoles Na^+ period-baseline μmoles Na^+) for administration of either furosemide or sample respectively. The sum of ΔUNaV for the four periods following infusion of furosemide was the net sodium excreted for furosemide, defined as FR. The sum of ΔUNaV for the fifteen periods following infusion of the sample was the net sodium excreted for the sample defined as SR. The natriuretic ratio Rn (or normalized natriuretic response) of a sample was calculated by dividing SR by FR(Rn =SR/FR).

Na^+ /K^+ -ATPase = Na^+ /K^+ -ATPase (Bos taurus, UniProt Q08DA1); test: Na+/K+-ATPase (sodium pump) inhibition assay, 86Rb+ uptake in MDBK cells; type: cell-based, bovine (Madin-Darby bovine kidney cells); details: 0.2-200 ng/well
Experimental: The assay in MDBK cells has been described previously (see Benaksas et al., above). The assay is described briefly here. Madin-Darby bovine kidney (MDBK) cells (ATCC:CCL22) were maintained in Dulbecco's Modified Eagle's Medium (DMEM) with 5% Fetal Bovine Serum and 5% Bovine Calf Serum in a 5% CO2 /95% humidified air atmosphere at 37° C. and split (1:2) once per week.
One day before the assay, cells were plated in a 96-well plate at a density of 5×10^5 cells/well in DMEM with serum. On the day of the assay the medium was removed and the cells washed with phosphate buffered saline (PBS) before addition of 100 μL of assay media (122 mM NaCl, 1.8 mM CaCl2, 0.8 mM MgSO4, 24 mM NaHCO3, 1 mM sodium pyruvate, 25 mM glucose, 14 mM glycylglycine, 0.2% phenol red, 8 mM Na2 HPO4 1.15 mM KH2 PO4, pH 8.0) and 100 μl of sample. The plate was preincubated for 30 minutes at 37° C., then chilled on ice for 10 minutes. To each well was added 0.15 μCi ^86 RbCl (Amersham) in 10 μL of assay media. The plate was then incubated at 37° C. for 10 minutes. A portion (100 μL) of the supernatant was counted with 0.5 mL of scintillation cocktail in a liquid scintillation counter. As a control for Na^+ /K^+ -ATPase inhibition, a dose response curve for ouabain in the range of 10^-5 -10^-8 M was obtained. Intra-experiment coefficient of variation for ouabain was 3-15%. […]

[1] = Chemical stability (physical properties); type: physicochemical
[2] = literature statement; cited from earlier work

For Cc1c(O)cc2c(c1C)OC(C)(CCC(=O)O)CC2 (stereo not drawn) [LLU-α, 6-hydroxy-2,7,8-trimethylchroman-2-propanoic acid], the natriuretic activity (conscious rats; 8 μg/kg, further purified on acetic acid/acetonitrile RP-HPLC (seventh step)) was “active”, the natriuretic dose-response curve (conscious rats; Table III) was “narrow and biphasic” and the “natriuretic activity of isolates” value (conscious rats; crude isolates from second RP-HPLC step) was “natriuretically active”. The “sodium excretion in urine relative to potassium excretion” value (conscious rats; in mammals) was “increasing sodium excretion in the urine in mammals without a corresponding increase in potassium excretion”, the “kaliuresis (potassium excretion) on infusion” value (conscious rats; infused into conscious rats) was “no detectable kaliuresis” and the natriuresis on infusion (conscious rats; infused into the rat (FIGS. 3A and B)) was “sustained natriuresis”. The “effect on blood pressure” value (conscious rats; infused into the rat, data not shown) was “no effect on blood pressure”, the “change in mean arterial pressure” value (conscious rats; on infusion, conscious rats) was “does not cause a significant change in mean arterial pressure; also recorded: Neither LLU-α nor -γ caused a significant change in mean arterial pressure” and the “natriuretic activity at lower or higher doses” value (conscious rats; partially purified (sixth purification step), doses below or above 4-8 μg/kg) was “no activity”. For the same molecule, the “natriuretically active dose range” value (conscious rats; partially purified, silica gel HPLC (sixth purification step)) was 4 to 8 µg/kg, the “Natriuretic Response (R)” value (conscious rats; silica gel HPLC fraction 17, dose 0.2 μg) was -0.14 and the “Natriuretic Response (R)” value (conscious rats; silica gel HPLC fraction 17, dose 1 μg) was 0.27. The “Natriuretic Response (R)” value (conscious rats; silica gel HPLC fraction 17, dose 2 μg) was 1.14 and 0.75, the “Natriuretic Response (R)” value (conscious rats; silica gel HPLC fraction 17, dose 10 μg) was 0.26 and the “Natriuretic Response (R)” value (conscious rats; silica gel HPLC fraction 18, dose 56.4 μg) was 0.23. The “Natriuretic Response (R)” value (conscious rats; silica gel HPLC fraction 18, dose 224 μg) was 0.02, the “Natriuretic Response (R)” value (conscious rats; silica gel HPLC fraction 19, dose 0.2 μg) was 0.24 and the “Natriuretic Response (R)” value (conscious rats; silica gel HPLC fraction 19, dose 1 μg) was 0.93. For the same molecule, the “Natriuretic Response (R)” value (conscious rats; silica gel HPLC fraction 19, dose 10 μg) was 0.09, the “Na^+ /K^+ -ATPase inhibition” value (Na^+ /K^+ -ATPase) was “no inhibition” and the “stability in CDCl3” value ([1]; CDCl3) was “Unstable”. The “stability in dilute base” value ([1]; dilute base) was “instability in dilute base; also recorded: Unstable” and the free radical scavenging (Free radical scavenging) was “cardio-selective free radical scavenger”.

For C[C@H]1O[C@@H](O[C@H]2[C@@H](O)C[C@H](O[C@H]3[C@@H](O)C[C@H](O[C@H]4CC[C@@]5(C)[C@H](CC[C@@H]6[C@@H]5C[C@@H](O)[C@]5(C)[C@@H](C7=CC(=O)OC7)CC[C@]65O)C4)O[C@@H]3C)O[C@@H]2C)C[C@H](O)[C@@H]1O [digoxin], the natriuretic activity [2] is listed as “not, however, natriuretic”.

For C[C@@H]1O[C@@H](O[C@H]2C[C@@H](O)[C@]3(CO)[C@H]4[C@H](O)C[C@]5(C)[C@@H](C6=CC(=O)OC6)CC[C@]5(O)[C@@H]4CC[C@]3(O)C2)[C@H](O)[C@H](O)[C@H]1O [Ouabain], the natriuretic activity [2] is listed as “not, however, natriuretic”.
